# Read-outs that look alike come from different tables or passages of the source. Where a SMILES comes first, the peptide text is derived from it. Bridges are numbered along the chain shown (N, C = ends).
# Key:
# SSTR2 [1] = target: T1, SSTR2 (Homo sapiens, UniProt P30874); parameters: method as in earlier work; settings: literature values marked *; ref 1 (supplementary references); cited from earlier work
# T1 construct: host or cells: CHO-K1
# Description: (§1) The peptide backbone is shown in gold and the N- and C-terminus residues, as well as the disulfide bond are labelled. Representative aromatic clusters. All side chains are shown to facilitate structural analysis. Side chains participating in the interactions are specifically labelled. c Schematic representation of Cortistatin-14 sequence. […] 1-2. […] 3-1. […] 3-1. […] 3-1.
# SSTR3 [2] = target: T2, SSTR3 (Homo sapiens, UniProt P32745); parameters: method as in earlier work; settings: literature values marked *; ref 1 (supplementary references); cited from earlier work
# T2 construct: host or cells: CHO-K1
# Description: as §1
# SSTR4 = target: T3, SSTR4 (Homo sapiens, UniProt P31391); parameters: method as in earlier work; settings: literature values marked *; ref 1 (supplementary references); cited from earlier work
# T3 construct: host or cells: CHO-K1
# Description: as §1
# SSTR5 [3] = target: T4, SSTR5 (Homo sapiens, UniProt P35346); parameters: method as in earlier work; settings: literature values marked *; ref 1 (supplementary references); cited from earlier work
# T4 construct: host or cells: CHO-K1
# Description: as §1
# in vitro = type: cell-based; settings: mouse, peritoneal macrophages stimulated with LPS, Viability of Macrophages (%, vs. Initiation of culture)
# Protocol: Mouse peritoneal macrophages were cultured in medium (unstimulated) or stimulated with LPS (1 μg/ml) in the absence or presence of Analogue 5 (100 nM). Mouse spleen cells were cultured in medium alone (unstimulated) or stimulated with anti -CD3 a ntib odies (2 μg/ml) in the absence or presence of analogue 5 (100 nM). After 24 hours (macrophages) or 48 hours (spleen cells) of culture, cell viability and apoptosis were determined. The percentage of cell viability relative to the initiation of cell c ult ure was determined using AlamarBlue assay (Thermo Fisher Scientific). The percentage of apoptotic cells was determined by flow cytometric analysis of Annexin Vpositive 7-amino-actinomycin Dnegative cell population (R&D Systems). Data are the mean ± SEM of 5 independe nt cultures performed in duplicates. […]
# Treatments were administered in a curative regime as described in Figure 4 and sera were collected 10 days after TNBS infusion. n=8 mice/group. […] Statistical differences between groups were calculated usi ng unpa ired two -tailed Student’s t-test. ****p<0.0001 versus TNBS+saline […]
# Total RNA was isolated from colon sections obtained at day 10 after TNBS injection following the manufacturer’s protocol (Tripure, Roche). […] SYBER green quantitative PCR (SensiFast Sybr No-Rox mix, Bioline) was performed as described in the […]
# SSTR3 [4] = target: T2, SSTR3; test: Radio-ligand binding assay, SSTR3
# Protocol: (§2) Graphical and tabular representation of the percentage inhibition of specific binding, as IC50 (nM) binding values for the analogues against the five SSTR1-SSTR5 is represented in Supplementary Fig. 1b and Supplementary Table 1. […] IC50 values were determined by a non-linear, least squares regression analysis using Prism 9 (GraphPad Software, USA), using the Dose-response inhibition (three-parameters) model. […]
# (§3) (SSTR1-SSTR5), using a Radio-ligand Binding Assay (Supplementary Figure 1b). Cells were incubated in HEPES buffer pH 7.4 with the new analogues of Cortistatin at 10 different concentrations in a range […]
# (§4) specifically bound (performed at Eurofins Panlabs, Inc.). The radioactivity obtained in the absence of SST14 is considered as total binding and that obtained in the presence of 1 µM of SST14 is considered as nonspecific binding. Specific binding was considered as the difference between total and nonspecific.
# (§5) Biochemical assay results are presented as the percent inhibition of specific bindin g (% inhib ition) as a […]
# (§6) part of each binding assay with the five (SSTR1 -SS T R5 ) . I C50 values were determined by a non-linear, least squares regression analysis using Prism 9 (GraphPad Software, USA), using the Dose -response inhibit ion (t hree-parameters) model.
# SSTR1 = target: T5, SSTR1 (Homo sapiens, UniProt P30872); test: Radio-ligand binding assay, SSTR1
# T5 construct: host or cells: CHO-K1
# Protocol: as §2, §3, §4, §5, §6
# [5] = In vitro stability of peptides in human plasma (half-life in serum); settings: serum half-life of analogue 5 vs native CST
# Protocol: The peptides were dissolved in water at a concentration of 6 mg/mL and warmed up to 37 °C. Human plasma was obtained as a lyophilised solid (K3 EDTA Plasma, BBI solutions, code S112-1), reconstituted with sterile 0.9% sodium chloride solution and stored at −20 °C. Human plasma was thawed and incubated at 37 °C before use.
# The peptides were incubated in 90% human plasma at 37 °C for different times and then precipitated with two volume equivalents of methanol. […] The supernatant was filtered with a 0.45-µm PVDF filter and analysed in triplicate by RP-HPLC using an isocratic method (eluent A = 0.1%TFA in water; eluent B = 0.07%TFA in ACN, column = Kromasil C8, 100 Å, 5 µm, 250 × 4.6 mm, flow = 1 mL/min, wavelength = 220 nm, injection volume = 20 µL, Tª = 60 °C). The disappearance of the peptide was determined in relation to the area of the initial time for calculating its half-life.
# SSTR2 [6] = target: T1, SSTR2; test: Radio-ligand binding assay, SSTR2
# Protocol: as §2, §3, §4, §5, §6
# SSTR5 [7] = target: T4, SSTR5; test: Radio-ligand binding assay, SSTR5
# Protocol: as §2, §3, §4, §5, §6
# [8] = system: LPS-activated mouse Raw 264 macrophages; test: Inflammatory response of LPS-activated RAW 264 macrophages; type: cell-based; settings: 100 nM (Supplementary Fig. 2c)
# Protocol: Inflammatory response was assayed in vitro on the mouse macrophagic cell line RAW 264 macrophages and mouse primary peritoneal macrophages. RAW 264 cells (ATTC, TIB-71) were grown at 5 × 10^5 cells/mL in complete DMEM medium (DMEM supplemented with 100 U/mL penicillin/streptomycin, 2 mM L-glutamine, 50 μM 2-mercaptoethanol and 10% heat-inactivated fetal calf serum) until reaching a confluence of 80% and then incubated in the absence (used as baseline reference) or presence of LPS (1 μg/mL, from E. coli serotype 055: B5, Sigma). Cortistatin (mouse/rat CST-14, Bachem) and its synthesised analogues were added at a concentration of 100 nM at the beginning of culture. After 24 h of culture, supernatants were harvested. Levels of the inflammatory cytokines TNFα and IL6 were determined by a specific sandwich ELISA by using capture/biotinylated detection monoclonal antibodies from BD Pharmingen (for TNFα: capture antibody clone G281-2626, cat # 551225; biotin antibody clone MP6-XT3, cat # 554415; for IL6: capture antibody clone MP5-20F3, cat # 554398; biotin MP5-32C1, cat # 554402) according to the manufacturer’s recommendations. Nitric oxide content in culture supernatants was determined by quantifying nitrite levels using the Griess assay.
# [9] = system: anti-CD3-activated mouse spleen cells; test: Proliferation and Th1-type cytokines of anti-CD3-activated spleen cells; type: cell-based; settings: 100 nM (Supplementary Fig. 2d)
# Protocol: Spleen cells were isolated from C57Bl/6J mice (male, 8-weeks-old, Charles River) by mechanical cell dissociation, filtration using a nylon filter and red cell lysing. The spleen cells were incubated in complete DMEM medium at a density of 10^6 cells/mL for 2 h. Nonadherent cells (consisting in 80% of T cells) were cultured in complete DMEM medium and stimulated with anti-mouse CD3e antibody (2 μg/mL, clone 145-2C11, BD Pharmingen, cat #: 553058) in the presence of different Cortistatin analogues (100 nM). After 48 h, culture supernatants were collected and the levels of cytokines (IFNγ and IL2) were determined by a specific sandwich ELISA by using capture/biotinylated detection monoclonal antibodies from BD Pharmingen (for IFNγ: capture antibody clone XMG1.2, cat # 554408; biotin antibody clone R4-6A2, cat # 551506; for IL2: capture antibody clone S4B6, cat # 554375; biotin antibody clone JES6-5H4, cat # 554426) according to the manufacturer’s recommendations. To determine the effect of different analogues of Cortistatin in proliferation, the cells were cultured for 72 h, 0.5 μCi (0.0185 MBq)/well of [^3H]-thymidine was added for the last 8 h of culture, harvested the membranes and [^3H]-thymidine incorporated was quantified by scintillation counting.
# [10] = system: colonic mucosa of mice with TNBS-induced acute colitis; test: Cytokines in colonic mucosa, TNBS-induced acute colitis; type: in vivo, mouse; settings: Figure 5c, mean of 8 mice
# Protocol: Control mice received 50% ethanol alone.
# Protein extracts were isolated by homogenisation of colonic segments (50 mg tissue/mL) in 50 mM Tris-HCl, pH 7.4, with 0.5 mM DTT, and 10 μg/mL of a cocktail of proteinase inhibitors (all from Sigma-Aldrich). Samples were centrifuged at 30,000×g for 20 min and stored at –80 °C until cytokine determination.
# [11] = system: serum of mice with TNBS-induced acute colitis; test: Serum cytokines in TNBS-induced acute colitis; type: in vivo, mouse
# Description: In both TNBS-induced acute and chronic colitis, animals were daily monitored for the appearance of diarrhea, body weight loss and survival. At different time points, colitis signs were scored in base of stool consistency and rectal bleeding by two blinded observers using the following scale: 0 = normal stool appearance, 1 = slight decrease in stool consistency, 2 = moderate decrease in stool consistency, 3 = moderate decrease in stool consistency and presence of blood in stools, 4 = severe watery diarrhea and moderate/severe bleeding in stools. […] After macroscopic examination, various colonic segments were immediately frozen in liquid nitrogen for protein extraction and cytokine determination or for histopathological analysis as described below. In some animals, MLNs were isolated 10 days after TNBS injection and assayed for proliferation, cytokine production and flow cytometric analysis as described below. Moreover, sera were collected by cardiac puncture at day 10 after TNBS injection and the levels of cytokines and anti-TNBS IgG were determined by specific ELISAs as described below. […]
# Supplementary Table 3. Serum cytokines in TNBS-in du ced acu t e col i ti s.
# Treatments were administered in a curative regime as described in Figure 4 and sera were collected 10
# days after TNBS infusion. n=8 mice/group. Data are mean ± SEM. […]
# [12] = TNBS acute colitis, curative regime, sera 10 days after TNBS, mean ± SEM, n=8
# [13] = acute colitis induced by TNBS, serum, mean of 8 mice
# T2 sequence (P32745 whole entry): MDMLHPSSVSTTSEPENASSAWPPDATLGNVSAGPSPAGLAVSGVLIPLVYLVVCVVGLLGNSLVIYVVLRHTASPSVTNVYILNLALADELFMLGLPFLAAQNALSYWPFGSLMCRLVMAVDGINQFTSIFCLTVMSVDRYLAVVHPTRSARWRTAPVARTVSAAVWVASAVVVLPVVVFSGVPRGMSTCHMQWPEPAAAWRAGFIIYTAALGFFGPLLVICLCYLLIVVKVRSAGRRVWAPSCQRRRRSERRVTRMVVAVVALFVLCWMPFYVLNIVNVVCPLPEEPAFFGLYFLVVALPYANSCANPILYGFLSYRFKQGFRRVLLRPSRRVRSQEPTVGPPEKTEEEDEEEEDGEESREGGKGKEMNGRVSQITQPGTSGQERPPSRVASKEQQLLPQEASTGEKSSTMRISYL
# T1 sequence (P30874 whole entry): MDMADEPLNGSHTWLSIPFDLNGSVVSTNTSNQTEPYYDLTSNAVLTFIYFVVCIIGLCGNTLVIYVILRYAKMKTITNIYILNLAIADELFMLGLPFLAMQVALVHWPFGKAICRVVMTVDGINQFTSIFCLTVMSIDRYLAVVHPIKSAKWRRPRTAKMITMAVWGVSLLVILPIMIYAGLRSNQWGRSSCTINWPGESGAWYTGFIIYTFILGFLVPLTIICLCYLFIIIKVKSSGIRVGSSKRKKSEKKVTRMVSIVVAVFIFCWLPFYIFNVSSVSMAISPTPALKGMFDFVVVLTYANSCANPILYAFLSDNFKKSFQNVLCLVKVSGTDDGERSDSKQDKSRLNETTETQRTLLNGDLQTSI
# T4 sequence (P35346 whole entry): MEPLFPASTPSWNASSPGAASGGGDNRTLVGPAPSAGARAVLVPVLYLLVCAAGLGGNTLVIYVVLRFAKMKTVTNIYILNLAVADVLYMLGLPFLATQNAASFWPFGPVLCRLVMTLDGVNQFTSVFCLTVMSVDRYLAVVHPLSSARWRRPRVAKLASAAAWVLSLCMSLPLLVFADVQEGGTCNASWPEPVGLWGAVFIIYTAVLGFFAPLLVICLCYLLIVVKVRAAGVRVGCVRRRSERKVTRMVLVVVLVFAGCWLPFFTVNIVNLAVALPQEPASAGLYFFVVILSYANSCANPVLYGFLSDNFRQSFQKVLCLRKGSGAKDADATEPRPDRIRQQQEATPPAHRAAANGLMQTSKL
# T5 sequence (P30872 whole entry): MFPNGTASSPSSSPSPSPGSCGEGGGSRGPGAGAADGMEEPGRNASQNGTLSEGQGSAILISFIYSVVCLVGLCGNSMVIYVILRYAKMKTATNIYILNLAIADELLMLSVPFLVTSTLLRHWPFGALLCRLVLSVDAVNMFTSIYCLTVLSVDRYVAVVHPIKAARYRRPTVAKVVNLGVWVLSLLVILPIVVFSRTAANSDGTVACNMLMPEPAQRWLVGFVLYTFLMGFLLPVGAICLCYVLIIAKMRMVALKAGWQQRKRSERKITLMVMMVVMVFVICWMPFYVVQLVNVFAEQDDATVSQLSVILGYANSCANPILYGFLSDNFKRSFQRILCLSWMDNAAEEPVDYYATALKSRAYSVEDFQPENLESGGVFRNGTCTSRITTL
# T3 sequence (P31391 whole entry): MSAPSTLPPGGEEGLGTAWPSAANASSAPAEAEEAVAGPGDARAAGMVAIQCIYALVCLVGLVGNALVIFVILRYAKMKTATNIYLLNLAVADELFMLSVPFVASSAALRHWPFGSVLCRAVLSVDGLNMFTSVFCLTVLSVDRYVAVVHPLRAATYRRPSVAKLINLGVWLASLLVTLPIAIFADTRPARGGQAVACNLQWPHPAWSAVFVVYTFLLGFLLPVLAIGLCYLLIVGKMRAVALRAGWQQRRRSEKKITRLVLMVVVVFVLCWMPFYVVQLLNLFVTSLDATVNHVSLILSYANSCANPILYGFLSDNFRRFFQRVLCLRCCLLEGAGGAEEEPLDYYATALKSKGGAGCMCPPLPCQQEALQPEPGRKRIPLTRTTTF
smiles,measurement,setting,value
C[C@@H](O)[C@@H]1NC(=O)[C@H](CCCCN)NC(=O)[C@H](Cc2c[nH]c3ccccc23)NC(=O)[C@H](Cc2ccccc2)NC(=O)[C@H](Cc2ccccc2)NC(=O)[C@H](CC(N)=O)NC(=O)[C@H](CCCCN)NC(=O)[C@@H](NC(=O)[C@@H]2CCCN2)CSSC[C@@H](C(=O)N[C@@H](CCCCN)C(=O)O)NC(=O)[C@H](CO)NC(=O)[C@H](CO)NC(=O)[C@H](Cc2ccccc2)NC1=O [CST] (H-PCKNFFWKTFSSCK-OH; disulfide 2-13),IC50,SSTR2 [1],0.09 nM
same,IC50,SSTR3 [2],0.3 nM
same,IC50,SSTR4,0.2 nM
same,IC50,SSTR5 [3],0.3 nM
CCCCCCCC(=O)N1CCC[C@H]1C(=O)N[C@H]1CSSC[C@@H](C(=O)N[C@@H](CCCCN)C(=O)O)NC(=O)[C@H](CO)NC(=O)[C@H]([C@@H](C)O)NC(=O)[C@H](Cc2ccccc2)NC(=O)[C@H]([C@@H](C)O)NC(=O)[C@H](CCCCN)NC(=O)[C@@H](Cc2c[nH]c3ccccc23)NC(=O)[C@H](Cc2ccccc2)NC(=O)[C@H](Cc2c(C)cc(C)cc2C)NC(=O)[C@H](CC(N)=O)NC(=O)[C@H](CCCCN)NC1=O [A5],"viability at 24 h, 0.1 µM",in vitro,93.2%
same,IC50,SSTR3 [4],5.1 nM
same,IC50,SSTR1,47.3 nM
same,increase in stability with respect to the native neuropeptide,[5],10 fold
same,IC50,SSTR2 [6],35 nM
same,IC50,SSTR5 [7],1.12 nM
"Cc1cc(C)c(C[C@@H]2NC(=O)[C@H](CC(N)=O)NC(=O)[C@H](CCCCN)NC(=O)[C@@H](NC(=O)[C@@H]3CCCN3)CSSC[C@@H](C(=O)N[C@@H](CCCCN)C(=O)O)NC(=O)[C@H](CO)NC(=O)[C@H]([C@@H](C)O)NC(=O)[C@H](Cc3ccccc3)NC(=O)[C@H]([C@@H](C)O)NC(=O)[C@H](CCCCN)NC(=O)[C@@H](Cc3c[nH]c4ccccc34)NC(=O)[C@H](Cc3ccccc3)NC2=O)c(C)c1 [A4, [L-Msa5_D-Trp7_L-Thr11]-CST 14]",IC50,SSTR3 [4],1.8 nM
same,IC50,SSTR1,14.7 nM
same,effect on the inflammatory responses in activated macrophages,[8],no significant effects
same,effect on the inflammatory responses in activated lymphocytes,[9],no significant effects
same,IC50,SSTR2 [6],9.8 nM
same,IC50,SSTR5 [7],4 nM
"Nc1ccc(O)c(C(=O)O)c1 [Mesalazine, 5-aminosalycilic acid]",IL10 (ng/g colon),[10],3.75 ng/g colon
same,Serum IL6,[11]; [12],773 ± 46 pg/mL
same,Serum IL17,[11]; [12],233 ± 15 pg/mL
same,"IL6, serum level",[11]; [13],0.77 ng/mL
same,"TNFa, serum level",[11]; [13],0.78 ng/mL
same,"IL17, serum level","[11]; acute colitis induced by TNBS, serum, mouse 1 of the group",0.024 ng/mL
same,"IL17, serum level","[11]; acute colitis induced by TNBS, serum, mouse 2 of the group",0.024 ng/mL
same,"IL17, serum level","[11]; acute colitis induced by TNBS, serum, mouse 3 of the group",0.029 ng/mL
same,"IL17, serum level","[11]; acute colitis induced by TNBS, serum, mouse 4 of the group",0.017 ng/mL
same,"IL17, serum level","[11]; acute colitis induced by TNBS, serum, mouse 5 of the group",0.019 ng/mL
same,"IL17, serum level","[11]; acute colitis induced by TNBS, serum, mouse 6 of the group",0.025 ng/mL
same,"IL17, serum level","[11]; acute colitis induced by TNBS, serum, mouse 7 of the group",0.021 ng/mL
same,"IL17, serum level","[11]; acute colitis induced by TNBS, serum, mouse 8 of the group",0.028 ng/mL
